Patent US6399568B1, “Cyclic tetrapeptide derivatives and medicinal use thereof” (Japan Energy Corporation, priority 1997, dated 2002)
Non-standard residues stand in square brackets, D forms with d. Residues, ends and D or L forms follow the SMILES beside them. *: point of attachment. Asu = N[C@@H](CCCCCC(=O)O)C(=O)O; NHOH = ON*

How the values were obtained:
[1] = tested on: mouse malignant melanoma B16 cell line; test: Cell proliferation inhibition (72 hours); type: cell-based; details: read-out: 50% proliferation inhibiting concentration B16 (nM) mean
Description: (§1) In order to verify the action of the cyclic tetrapeptide derivative according to the present invention in inhibiting cell proliferation in cancerized cells, the action on the proliferation of the aforementioned B16/BL6 cells was investigated. The evaluation of cell proliferation rates was done utilizing a commercially available measuring kit, specifically, from Promega under the trade name CellTiter 96 Aqueous Non-Radioactive Proliferation Assay Kit. In the measuring kit, the amount of products through reduction of a reagent tetrazolium compound (3-(4,5-dimethylthiazol-2-yl)-5-(3-carboxymethoxyphenyl)-2-(4-sulfophenyl)-2H-tetrazolium, inner salt; MTS) by viable animal cells is determined by detecting spectrophotometrically the color generated from the products. Since the amount of products is proportional to the amount of viable cells, this kit is utilized to evaluate the amount of viable cells.
(§2) According to the procedure of Test Example 1, B16/BL6 cells are inoculated in a 96 well microplate and cultured for 24 hours. Then, 10 μl of a solution of the source solution of a compound to be tested which has been diluted to a predetermined amount per well is added. Thereafter, culture is continued for additional 48 hours and 20 μl of a reagent solution in the aforementioned CellTiter 96 Aqueous Non-Radioactive Proliferation Assay Kit is then added. After incubation is continued at 37° C. for 1 hour, the amount of color generation is measured as an absorbance at 490 n musing a microplate reader.
(§3) The amount of cell proliferation of a group to which a compound to be tested is added is expressed in a relative value as compared to the standard cell proliferation (100%) in a control group to which no compound to be tested is added. For each compound tested, the amounts of cell proliferation were measured at different concentrations of addition and the dependence of the quantitative cell proliferation on the concentration of addition was investigated. From the results, a concentration of addition at which the amount of cell proliferation was inhibited by 50% relative to the amount of cell proliferation in the control group without addition was determined.
(§4) The test method was in accordance with the above-mentioned procedure, except that the period of incubation after the addition of a compound was 72 hours.
(§5) As illustrative examples, results are shown for an evaluation using mouse malignant melanoma B16/BL6 and B16 cell lines; leukemia L1210 cell line, colon cancer Colon26 cell line, and liver cancer MH134 cell line as cancer cells. For the cell proliferation inhibiting action of each compound tested for these cancer cells, 50% proliferation inhibiting concentrations are shown in Table 4.

B16/BL6 cells [2] = test: MHC class-I molecule expression promoting activity; type: cell-based, mouse
[3] = tested on: liver cancer MH134 cell line; test: Cell proliferation inhibition (72 hours); type: cell-based, mouse; details: read-out: 50% proliferation inhibiting concentration MH134 (nM) mean
Description: as §1, §2, §3, §4, §5

leukemia L1210 cell line = test: Cell proliferation inhibition (72 hours); type: cell-based, mouse; details: read-out: 50% proliferation inhibiting concentration L1210 (nM) mean
Description: as §1, §2, §3, §4, §5

[4] = tested on: colon cancer Colon26 cell line; test: Cell proliferation inhibition (72 hours); type: cell-based, mouse; details: read-out: 50% proliferation inhibiting concentration Colon 26 (nM) mean
Description: as §1, §2, §3, §4, §5

[5] = molecular target: Mouse histone deacetylase; type: biochemical
Experimental: In an enzyme system using a radio-labelled acetylated histone as a substrate, histone deacetylase enzyme inhibiting activity was evaluated. The basic conditions were in accordance with the method of Yoshida et al. (J. Biol. Chem., 265, 17174-17179, 1990).
Mouse histone deacetylase to be used was partially purified from FM3A cells. Cells were suspended in HDA buffer (15 mM potassium phosphate, 5% glycerol, 0.2 mM EDTA, pH 7.5), homogenized and centrifuged (35000×g, 10 min) to collect the nuclei which in turn were homogenized in the same buffer containing 1 M (NH4)2SO4. After ultrasonic disruption and centrifugation, the concentration of (NH4)2SO4 in the supernatant was increased to 3.5 M to precipitate deacetylase enzyme proteins. This precipitate was redissolved in HDA buffer, dialyzed against HDA buffer, applied to DEAE-cellulose column and eluted in NaCl gradient. Active fractions were used as a histone deacetylase enzyme solution.
As a substrate, [^3H]acetyl histone was used. In a culture solution of FM3A cells in the presence of 5 mM sodium n-butyrate, [^3H]acetate was added, followed by incubation for 30 minutes to radio-label the histone. The histone was prepared in a conventional manner and used as a substrate solution.
An assay was performed by adding a compound to be tested at a given concentration while using a no-addition control group, and by incubating the substrate solution and the enzyme solution at 37° C. for 10 minutes (reaction volume, 100 μl). The enzyme reaction was stopped by adding 10 μl of concentrated hydrochloric acid and the excised [^3H]acetate was extracted with ethyl acetate for radioactivity measurement. The inhibiting activity was expressed by a concentration at which the enzyme activity in the control group was inhibited by 50% (50% inhibiting concentration).

B16/BL6 cells [6] = test: Inhibitory effect on cell proliferation (MTS, 48 hours); type: cell-based, mouse; details: 48 hours after addition; read-out: 50% inhibiting concentration
Description: as §1, §2, §3

B16/BL6 cells [7] = test: Inhibitory effect on histone deacetylation in cells (AUT gel electrophoresis); type: cell-based, mouse; details: Example 1 added at 10 μM, trichostatin A at 1 μM; 6 hours; histone H4 bands
Experimental: In a culture flask of 75 ml in capacity, 1.5×10^5 B16/BL6 cells were inoculated and preliminarily cultured for 4 days. Then, a given amount of a compound to be tested was added and subsequently cultured for 6 hours. Thereafter, cells were striped using 0.25% trypsin enzyme solution, washed once with PBS and stored temporarily at −80° C.
From this cell sample, histone was separated from chromatin and collected together with other proteins in a conventional manner. The resulting protein sample was subjected to AUTgel electrophoresis in an amount of 1 μg/lane. Said gel was stained with silver to detect bands separated by the migration.
The result on a control group in which no compound to be tested was added is also shown.

histone deacetylase = test: Histone deacetylase enzyme inhibiting activity, synthetic peptide substrate; type: biochemical, mouse; details: enzyme from B16/BL6 cells; [3H]acetylated histone H4 peptide; 37° C. 3 hours
Experimental: The preparation of histone deacetylase was performed essentially according to the method of Yoshida et al. (J. Biol. Chem., 265,17174-17179, 1990). The enzyme to be used was partially purified from B16/BL6 cells. The cells were suspended in HDA buffer (15 mM potassium phosphate, 5% glycerol, 0.2 mM EDTA, […], pH 7.5), homogenized and centrifuged (2500×g, 10 min) to collect the nuclei, which in turn were homogenized in the same buffer containing 1 M (NH4)2SO4. After ultrasonic disruption and centrifugation, the concentration of (NH4)2SO4 in the collected supernatant was increased to 3.5 M to precipitate histone deacetylase. This precipitate was redissolved in HDA buffer, subjected to gel filtration to replace the solvent with HDA buffer, and used as a crude histone deacetylase enzyme solution.
As a substrate, a synthetic substrate peptide, [^3H]acetylated histone H4 peptide was used. This [^3H]acetylated histone H4 peptide was obtained by synthesizing the N-terminal peptide of histone H4; […] (the C-terminal being cysteine) and radio-acetylating with ^3H -acetic anhydride.
An assay was performed by incubating the synthetic substrate solution and the enzyme solution at 37° C. for 3 hours in the presence of a compound to be tested (reaction volume, 100 μl). The reaction was stopped by adding 25 μl of 1 M HCl and 0.2 M acetic acid and [^3H]acetate excised by the enzyme reaction was extracted with ethyl acetate for radioactivity measurement. As a control group, the same procedure was repeated without addition of any test compound to the reaction system. The inhibiting activity was expressed by a concentration at which the histone deacetylase enzyme activity in the control group was inhibited by 50% (50% inhibiting concentration).

[8] = tested on: mouse malignant melanoma B16/BL6 cell line; type: cell-based; details: 72 hours; read-out: 50% proliferation inhibiting concentration B16/BL6 (nM) mean
Description: as §1
as §2, with “Then, 10 μl of a solution of the source solution of a compound to be tested which has been diluted to a predetermined amount per well is added.” left out
as §3, with “investigated.” for “investigated. From the results, a concentration of addition at which the amount of cell proliferation was inhibited by 50% relative to the amount of cell proliferation in the control group without addition was determined.”
as §4

`O=C(CCCCC[C@@H]1NC(=O)[C@H]2CCCN2C(=O)[C@H](Cc2ccccc2)NC(=O)[C@H](Cc2ccccc2)NC1=O)NO` [HDA-5, cyclo(-Asu(NHOH)-Phe-Phe-D-Pro-)] (cyclo([Asu](NHOH)FF[dP])) was tested, and the IC50 [1] was 3370 nM, the “MHC class-I molecule expression promoting action” value (B16/BL6 cells [2]; FIGS. 3 and 4, dependence on concentration of addition) was “exhibited MHC class-I molecule expression promoting action” and the “Twice Promoting Concentration Cx2” value (B16/BL6 cells [2]; concentration at which MHC class-I expression is twice that without addition, 72 hours) was 135 nM. The “conc. for 2-fold expression (nM) mean” value (B16/BL6 cells [2]; mean of a plurality of assays, 72 hours) was 98.2 nM, the IC50 [3] was 1660 nM and the IC50 (leukemia L1210 cell line) was 500 nM. For the same compound, the IC50 [4] was 2160 nM, the IC50 [5] was 2.18 nM and the IC50 (B16/BL6 cells [6]) was 210 nM. The “inhibitory effect on histone deacetylation” value (B16/BL6 cells [7]) was “inhibits the deacetylation of histone”, the IC50 (histone deacetylase) was 6.03 nM and the IC50 [8] was 257 nM.
